Test results taken from ChEMBL document CHEMBL2176907, “Identification of multiple 5-HT₄ partial agonist clinical candidates for the treatment of Alzheimer's disease” (J Med Chem, 2012).
Calls of active or inactive are those of the source. The rule behind the calls is not given here.

How the values were obtained:
Canis familiaris [1] = assay: Gastrointestinal toxicity in beagle dog assessed as emesis at 30 mg/kg administered as repeated dose for 7 days measured up to 1 month; type: organism-based, Canis lupus familiaris; set-up: dose 30 mg/kg; conditions: in vivo, 168 h
Rattus norvegicus [2] = assay: Procognitive activity in Wistar rat assessed as reversal of scopolamine-induced learning deficit at […], sc administered 30 mins prior to scopolamine-challenge measured on acquisition days 3 and 4 by Morris water maze testing; type: functional, organism-based; set-up: dose 0.032 mg/kg
Rattus norvegicus [3] = assay: Gastrointestinal toxicity in male Sprague-Dawley rat assessed as reduction in body weight at 100 mg/kg administered as repeated dose for 7 days measured up to 1 month; type: organism-based; set-up: dose 100 mg/kg; conditions: in vivo, 168 h
Canis familiaris [4] = assay: Gastrointestinal toxicity in beagle dog assessed as decrease in food intake administered as repeated dose for 7 days measured up to 1 month; type: organism-based, Canis lupus familiaris; conditions: in vivo, 168 h
Rattus norvegicus [5] = assay: Neurotoxicity in Sprague-Dawley rat assessed as convulsions at 100 mg/kg administered as repeated dose for 7 days measured up to 1 month; type: toxicity, organism-based; set-up: dose 100 mg/kg; conditions: in vivo, 168 h
Canis familiaris [6] = assay: Cardiotoxicity in beagle dog assessed as increase in systolic blood pressure at 10 mg/kg administered as repeated dose for 7 days measured up to 1 month; type: toxicity, organism-based, Canis lupus familiaris, Artery; set-up: dose 10 mg/kg; conditions: in vivo, 168 h
[7] = Intrinsic clearance in dog liver microsomes; type: ADME, Canis lupus familiaris, Microsome; conditions: read-out: CLH
[8] = Oral bioavailability in rat; type: ADME, organism-based; conditions: in vivo
Brain = assay: Free AUC (0 to 4 hrs) in sc dosed Sprague-Dawley rat brain by LC-MS/MS analysis; type: ADME, organism-based; conditions: in vivo
[9] = Clearance in iv dosed dog; type: ADME, organism-based, Canis lupus familiaris; conditions: in vivo
CYP2D6 = CYP2D6 (Homo sapiens, UniProt P10635); assay: Inhibition of CYP2D6 in human liver microsomes using dextromethorphan as substrate at 3 uM; type: ADME, Microsome; conditions: probe dextromethorphan
Chain of CYP2D6 (P10635 whole entry): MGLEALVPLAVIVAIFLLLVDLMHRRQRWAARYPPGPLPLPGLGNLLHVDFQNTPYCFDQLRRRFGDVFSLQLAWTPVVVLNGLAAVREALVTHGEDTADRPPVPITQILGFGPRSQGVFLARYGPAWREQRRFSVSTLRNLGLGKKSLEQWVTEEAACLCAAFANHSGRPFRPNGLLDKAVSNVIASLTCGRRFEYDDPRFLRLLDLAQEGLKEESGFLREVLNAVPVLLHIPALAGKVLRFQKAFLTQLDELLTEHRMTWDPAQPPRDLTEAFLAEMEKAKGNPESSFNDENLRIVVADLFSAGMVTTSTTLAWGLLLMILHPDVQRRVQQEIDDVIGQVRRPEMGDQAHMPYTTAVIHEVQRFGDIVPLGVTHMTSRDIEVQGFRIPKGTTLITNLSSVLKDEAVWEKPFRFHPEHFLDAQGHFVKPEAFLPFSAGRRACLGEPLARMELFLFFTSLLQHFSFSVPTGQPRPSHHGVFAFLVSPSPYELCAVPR

[10] = Oral bioavailability in dog; type: ADME, organism-based, Canis lupus familiaris; conditions: in vivo
Rattus norvegicus [11] = assay: Displacement of [3H]SB207145 from 5HT4 receptor in sc dosed Sprague-Dawley rat striatal membrane incubated for 45 mins prior to [3H]SB207145-adminsitration measured after 15 mins; type: functional, organism-based; conditions: Striatum
[12] = AUC (0 to 4 hrs) in sc dosed Sprague-Dawley rat CSF by LC-MS/MS analysis; type: ADME, organism-based; set-up: time < 4 hr, route subcutaneous
[13] = Intrinsic clearance in human liver microsomes; type: ADME, Microsome; conditions: read-out: CLH
Rattus norvegicus [14] = assay: Receptor occupancy of 5HT4 receptor in Sprague-Dawley rat brain at 1 mg/kg, sc up to 4 hrs; type: functional; conditions: route subcutaneous
[15] = Intrinsic clearance in rat liver microsomes; type: ADME, Microsome; conditions: read-out: CLH
Rattus norvegicus [16] = assay: Procognitive activity in Sprague-Dawley rat assessed as increase in acetylcholine level in prefrontal cortex at 1 mg/kg, sc after 3 hrs by brain microdialysis relative to control; type: functional, organism-based; set-up: dose 1 mg/kg
Plasma = assay: Free AUC (0 to 4 hrs) in sc dosed Sprague-Dawley rat plasma by LC-MS/MS analysis; type: ADME, organism-based; conditions: in vivo
Canis familiaris [17] = assay: Neurotoxicity in beagle dog assessed as convulsions at 30 mg/kg administered as repeated dose for 7 days measured up to 1 month; type: toxicity, organism-based, Canis lupus familiaris; set-up: dose 30 mg/kg; conditions: in vivo, 168 h
Rattus norvegicus [18] = assay: Receptor occupancy of 5HT4 receptor in Wistar rat at […], sc; conditions: route subcutaneous
Rattus norvegicus [19] = assay: Gastrointestinal toxicity in Sprague-Dawley rat assessed as decrease in food intake administered as repeated dose for 7 days measured up to 1 month; type: organism-based; conditions: in vivo, 168 h
[20] = Apparent permeability from apical to basal side of RRCK cells at 2 uM after 2 hrs by transwell assay; type: ADME, cell-based, Canis lupus familiaris, MDCKII-LE; conditions: dog, MDCK
[21] = Clearance in iv dosed rat; type: ADME, organism-based; conditions: in vivo
[22] = Ratio of free drug concentration in brain to free drug concentration in plasma in sc dosed Sprague-Dawley rat; type: ADME, organism-based; conditions: read-out: K(p,uu,brain)

In the case of `OC1(CN2CCC(COc3noc4cccc(O[C@@H]5CCOC5)c34)CC2)CCOCC1` [PF-04995274], the Activity (Canis familiaris [1]) is reported as “Toxic”, the Activity (Rattus norvegicus [2]) is reported as “Active” and the Activity (Rattus norvegicus [3]) is reported as “Toxic”. The Activity (Canis familiaris [4]) was “Toxic”, the Activity (Rattus norvegicus [5]) was “Toxic” and the Activity (Canis familiaris [6]) was “Toxic”. The CLint scaled [7] was 27.9 mL/min/kg, the bioavailability [8] was 40% and the fAUC (Brain) was 0.706 µM·h. It also gave a clearance [9] of 21.2 mL/min/kg, an inhibition at 3 µM (CYP2D6) of 13% and a bioavailability [10] of 47%. The Activity (Rattus norvegicus [11]) was “Dose-dependent effect”, the AUC(0-t) at 4 h [12] was 0.519 µM·h and the CLint scaled [13] was 33 mL/min/kg. The Occ (Rattus norvegicus [14]) was greater than 90%, the CLint scaled [15] was 48.9 mL/min/kg and the Activity (Rattus norvegicus [16]) was “Active”. The fAUC (Plasma) was 1.054 µM·h, the Activity (Canis familiaris [17]) was “Toxic” and the Occ (Rattus norvegicus [18]) was greater than 90%. The Activity (Rattus norvegicus [19]) was “Toxic”, the Papp A→B at 2 h, 2 µM [20] was 30 ×10⁻⁶ cm/s and the clearance [21] was 81.8 mL/min/kg. It also gave a Kp uu [22] of 0.7.
